According to article PMC11873939, “Target Identification with Live-Cell Photoaffinity Labeling and Mechanism of Action Elucidation of ARN23765, a Highly Potent CFTR Corrector” (Journal of Medicinal Chemistry, 2025):

How the values were obtained:
F508del-CFTR [1] = biological target: T1, F508del-CFTR (Homo sapiens, UniProt P13569, DEL508-508); assay: HS-YFP functional assay in CFBE41o- cells stably overexpressing F508del-CFTR; type: cell-based; conditions: 24 h treatment; for EC50 / HS-YFP assay in CFBE41o- cells EC50: 3 nM-10 µM range; for HS-YFP assay in CFBE41o- cells Emax: values normalized to DMSO-incubated cells
T1 construct: expressed in transfected cells
Method: These analogues were tested in the functional assay on the human bronchial epithelia-derived cell line, CFBE41o-, which stably overexpresses F508del-CFTR and the halide-sensitive yellow fluorescent protein (HS-YFP).[31] […]
HS-YFP-based assay for CFTR activity
Twenty-four hours after seeding on 96-well plates, CFBE41o- cells stably over-expressing F508del-CFTR and the HS-YFP were treated with test compounds at different concentrations in the 3 nM-10 µM range.1 Cells treated with vehicle alone (DMSO) and with ARN23765, respectively, served as negative and positive controls. The following day, cells were washed with PBS containing (in mM) 137 NaCl, 2.7 KCl, 8.1 Na2HPO4, 1.5 KH2PO4, 1.0 CaCl2, and 0.5 MgCl2. Cells were then incubated for 25 min with […] of PBS plus forskolin (20 µM) and VX-770 (1 µM) to maximally stimulate F508del-CFTR. Cells were then transferred to a microplate reader (FluoStar Galaxy; BMG Labtech, Offenburg, Germany) for CFTR activity determination. The plate reader was equipped with high-quality excitation (HQ500/20X: 500 ± 10 nm) and emission (HQ535/30M: 535 ± 15 nm) filters for YFP (Chroma Technology). Each assay comprised a continuous 14 s fluorescence reading, 2 s before and 12 s after injection of […] of an iodide-containing solution (PBS with Cl- replaced by I-; final I- concentration […]). Data were normalized to the initial background-subtracted fluorescence. To determine I- influx rate, the final 11 s of the data for each well were fitted with an exponential function to extrapolate initial slope (dF/dt). Reproducibility of results was confirmed by performing three independent experiments. […]

F508del-CFTR [2] = biological target: T1, F508del-CFTR; assay: Live-cell photoaffinity labeling, streptavidin pull-down and CFTR Western blot; type: binding; conditions: for CFTR forms in streptavidin pull-down (WB) after PAL: F508del-CFTR CFBE41o- cells kept at 27 °C for 24 h (low-temperature rescue) before PAL; for CFTR in streptavidin pull-down (WB) after PAL: F508del-CFTR CFBE41o- cells, probe 1 μM, 2 h, UV 365 nm
Method: (§1) Wt-CFTR or F508del-CFTR CFBE41o- cells were plated at 2–2.5 × 10^6 cells/plate in 6 cm diameter dishes. The day after, sodium butyrate (5–2.5 mM) was added for 24 h; next, the medium was exchanged with fresh one supplemented with DMSO (0.25%) (276855, Sigma-Aldrich) or probe (1 μM). For competition experiments, a 25-fold excess of ARN23765 (25 μM) was added 30 min before probe’s addition. For the analysis of “corrected” F508del-CFTR, F508del-CFTR CFBE41o- cells were kept at 27 °C for 24 h before adding the probes. Probes were incubated with cells for 2 h, then the medium was removed, and plates were washed twice with phosphate buffer saline (PBS). Cells were placed on ice and irradiated for 5 min at a wavelength of 365 nm using a 100-W UV-lamp (95–0127–02 model B100-AP, Analytik Jena). Cells were harvested with trypsin (T4299, Sigma-Aldrich), washed with PBS (D8537, Sigma-Aldrich), and pellets were stored at −80 °C until used, centrifuged at 300 × g and washed twice with PBS (D8537, Sigma-Aldrich). Pellets from in-cell photoaffinity labeling with alkyne-probes (PAP_1 and PAP_2) were lysed in PBS plus protease inhibitor cocktail (78429, Thermo Scientific) by sonication. The suspension was centrifuged at 800 × g for 20 min at 4 °C to discard nuclei and cell debris. The total extracted proteins were quantified with the bicinchoninic acid (BCA) protein assay (23225, Thermo Scientific) and subjected to CuAAC before proceeding with pull-down. Pellets from in-cell photoaffinity labeling with desthio-biotinylated (DS-biot) probes (PAP_1 DS-biot, PAP_2 DS-biot, PAP_N1 DS-biot, PAP_N2 DS-biot) were lysed with a modified RIPA buffer [50 mM tris-HCl pH 8, 150 mM NaCl, 0.5% Triton-X100, 0.2% SDS, 1 mM ethylenediaminetetraacetic acid (EDTA)] supplemented with protease inhibitor cocktail and centrifuged at 10.000× g for 10 min. The protein content in the supernatant was quantified by BCA protein assay. Protein lysate (200 μg) was diluted to 800 μL and the Triton-X100 percentage was reduced to 0.2% before proceeding to pull-down.
(§2) High capacity streptavidin agarose (20359, Thermo Scientific) (25 μL) was added to PAP-labeled cell extracts for 1 h at room temperature under gentle rotation. The streptavidin beads were collected by centrifugation and washed four times with lysis buffer. Resin-bound proteins were eluted with 45 μL of 5 mM biotin (B4501, Sigma-Aldrich) for 30 min at room temperature and analyzed with Western blot for CFTR expression. Input samples (4 and 8 μg for wt-CFTR and F508del-CFTR CFBE41o-, respectively) were collected immediately before incubation with streptavidin resin. Input and pulled-down samples were analyzed with WB as described in the supplementary methods.

CFTR = assay: Live-cell photoaffinity labeling in CFTR–/– CFBE41o- cells (control); type: binding, human; conditions: probe 1 μM, 2 h
wt-CFTR = biological target: T2, wt-CFTR (Homo sapiens, UniProt P13569); assay: Live-cell photoaffinity labeling, streptavidin pull-down and CFTR Western blot; type: binding; conditions: wt-CFTR CFBE41o- cells, probe 1 μM; for CFTR in streptavidin pull-down (WB) after PAL: 2 h, UV 365 nm
T2 construct: expressed in transfected cells
Method: as §1
Copper-catalyzed azide–alkyne cycloaddition (CuAAC) was performed according to a previously described protocol.[62] Briefly, to the protein preparation (250 μL at 1 mg/mL protein concentration) the following reagents were added at the indicated final concentrations: 100 μM 5/6-TAMRA-azide-desthiobiotin (CLK-1110–5, Jena Bioscience), 1.0 mM tris-(2-carbossietil)phosphine (TCEP, C4706, Sigma-Aldrich), 100 μM tris-[(1-benzyl-1H-1,2,3-triazol-4-yl)methyl]amine (TBTA, 678937, Sigma-Aldrich), 1.0 mM CuSO4.5H2O (Sigma), and 0.8% sodium dodecyl sulfate (SDS). TBTA was first dissolved in DMSO at 83.5 mM and then diluted with four volumes of tert-butanol. The reaction was mixed by vortexing and incubated for 1 h at 25 °C. After the reaction time, proteins were precipitated with 5 volumes of cold acetone overnight at −20 °C. Samples were centrifuged for 20 min at 20.000× g, and the pellets were washed with methanol, air-dried, and finally resuspended with 600 μL of 1% SDS. SDS concentration was then diluted to 0.2% with PBS before proceeding to pull-down.
as §2

T2 sequence (P13569 whole entry): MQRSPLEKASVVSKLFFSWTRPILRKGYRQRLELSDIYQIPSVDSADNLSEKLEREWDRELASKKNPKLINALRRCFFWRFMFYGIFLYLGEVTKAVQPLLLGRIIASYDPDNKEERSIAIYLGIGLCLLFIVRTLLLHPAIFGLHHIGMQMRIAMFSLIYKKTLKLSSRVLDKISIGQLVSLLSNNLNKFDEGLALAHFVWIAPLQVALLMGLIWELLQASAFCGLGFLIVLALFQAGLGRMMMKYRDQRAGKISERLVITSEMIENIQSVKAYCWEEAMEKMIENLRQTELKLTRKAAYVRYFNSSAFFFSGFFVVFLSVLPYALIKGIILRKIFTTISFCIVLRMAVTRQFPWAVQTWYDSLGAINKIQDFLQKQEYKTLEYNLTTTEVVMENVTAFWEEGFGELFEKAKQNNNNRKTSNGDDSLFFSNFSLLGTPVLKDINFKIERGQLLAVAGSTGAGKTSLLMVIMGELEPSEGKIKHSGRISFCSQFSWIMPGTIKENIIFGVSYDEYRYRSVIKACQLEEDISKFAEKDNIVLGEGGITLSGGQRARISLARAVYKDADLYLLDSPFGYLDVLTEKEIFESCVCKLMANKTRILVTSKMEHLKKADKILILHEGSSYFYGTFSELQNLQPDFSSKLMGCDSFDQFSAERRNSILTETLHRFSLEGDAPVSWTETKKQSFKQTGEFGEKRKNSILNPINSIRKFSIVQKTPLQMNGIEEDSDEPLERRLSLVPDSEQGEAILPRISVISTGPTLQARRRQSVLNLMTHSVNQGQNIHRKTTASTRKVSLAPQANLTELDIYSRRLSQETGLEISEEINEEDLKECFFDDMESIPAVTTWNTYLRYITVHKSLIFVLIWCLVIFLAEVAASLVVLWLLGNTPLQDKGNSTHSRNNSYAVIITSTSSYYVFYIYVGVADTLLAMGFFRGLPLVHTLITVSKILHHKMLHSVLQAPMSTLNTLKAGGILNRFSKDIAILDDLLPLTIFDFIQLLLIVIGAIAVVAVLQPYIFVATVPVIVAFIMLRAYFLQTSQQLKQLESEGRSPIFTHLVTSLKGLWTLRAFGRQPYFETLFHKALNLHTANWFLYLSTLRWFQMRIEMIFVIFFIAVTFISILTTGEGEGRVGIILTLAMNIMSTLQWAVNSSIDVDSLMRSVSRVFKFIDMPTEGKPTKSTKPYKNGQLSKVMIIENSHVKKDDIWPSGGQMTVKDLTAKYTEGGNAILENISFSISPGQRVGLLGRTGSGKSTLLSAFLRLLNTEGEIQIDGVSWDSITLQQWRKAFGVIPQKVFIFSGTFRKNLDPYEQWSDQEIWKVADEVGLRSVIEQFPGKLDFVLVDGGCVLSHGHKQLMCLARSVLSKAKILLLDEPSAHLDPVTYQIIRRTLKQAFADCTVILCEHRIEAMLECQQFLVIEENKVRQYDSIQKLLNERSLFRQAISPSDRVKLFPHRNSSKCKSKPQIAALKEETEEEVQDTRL
T1 sequence (P13569 with tags, fused parts or gaps DEL508-508): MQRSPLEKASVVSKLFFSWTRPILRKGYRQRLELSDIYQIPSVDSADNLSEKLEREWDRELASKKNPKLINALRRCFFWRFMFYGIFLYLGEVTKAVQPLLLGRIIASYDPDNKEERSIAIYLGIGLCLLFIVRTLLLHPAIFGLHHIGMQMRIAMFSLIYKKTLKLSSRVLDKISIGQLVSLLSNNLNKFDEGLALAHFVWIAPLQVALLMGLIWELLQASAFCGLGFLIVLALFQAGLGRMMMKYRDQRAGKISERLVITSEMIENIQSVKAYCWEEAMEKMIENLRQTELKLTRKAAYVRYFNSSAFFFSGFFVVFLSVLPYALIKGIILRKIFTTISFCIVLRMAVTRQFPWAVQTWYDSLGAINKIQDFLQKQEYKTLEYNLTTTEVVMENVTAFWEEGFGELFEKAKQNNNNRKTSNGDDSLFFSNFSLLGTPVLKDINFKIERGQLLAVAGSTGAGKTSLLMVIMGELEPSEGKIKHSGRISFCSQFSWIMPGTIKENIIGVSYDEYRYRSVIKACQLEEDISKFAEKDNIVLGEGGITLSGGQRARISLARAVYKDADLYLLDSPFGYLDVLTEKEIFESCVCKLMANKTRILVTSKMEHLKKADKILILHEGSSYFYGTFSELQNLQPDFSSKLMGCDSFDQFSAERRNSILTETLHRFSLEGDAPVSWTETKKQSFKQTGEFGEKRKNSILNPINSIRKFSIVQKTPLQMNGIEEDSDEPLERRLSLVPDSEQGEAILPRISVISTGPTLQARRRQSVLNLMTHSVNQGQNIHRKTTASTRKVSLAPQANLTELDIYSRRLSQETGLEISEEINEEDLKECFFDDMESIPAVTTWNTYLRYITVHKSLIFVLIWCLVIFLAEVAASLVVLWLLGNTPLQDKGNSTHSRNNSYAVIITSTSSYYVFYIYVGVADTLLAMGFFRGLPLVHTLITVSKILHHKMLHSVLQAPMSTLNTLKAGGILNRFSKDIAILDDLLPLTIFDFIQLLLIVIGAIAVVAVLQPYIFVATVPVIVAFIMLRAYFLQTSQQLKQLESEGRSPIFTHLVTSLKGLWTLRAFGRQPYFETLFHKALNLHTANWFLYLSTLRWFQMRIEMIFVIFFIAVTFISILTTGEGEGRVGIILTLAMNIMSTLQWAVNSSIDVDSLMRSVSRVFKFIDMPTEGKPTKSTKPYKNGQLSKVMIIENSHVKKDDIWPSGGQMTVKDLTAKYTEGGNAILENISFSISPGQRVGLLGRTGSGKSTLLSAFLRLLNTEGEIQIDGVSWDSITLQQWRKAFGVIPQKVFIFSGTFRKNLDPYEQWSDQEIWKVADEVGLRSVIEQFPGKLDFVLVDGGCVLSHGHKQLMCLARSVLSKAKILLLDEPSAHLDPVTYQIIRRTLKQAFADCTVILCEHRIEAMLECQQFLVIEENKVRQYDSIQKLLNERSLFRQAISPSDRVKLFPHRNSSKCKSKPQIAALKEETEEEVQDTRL

C#Cc1ccc(O[C@H]2CCCc3c(C(F)(F)F)nn(-c4cccc(C(=O)N(C)c5ccc6c(c5)OC(F)(F)O6)c4)c32)cc1 [Compound 1, (S)-N-(2,2-Difluorobenzo[d][1,3]dioxol-5-yl)-3-(7-(4-ethynylphenoxy)-3-(trifluoromethyl)-4,5,6,7-tetrahydro-1H-indazol-1-yl)-N-methylbenzamide]
EC50 (F508del-CFTR [1]): 3.3 nM | HS-YFP assay in CFBE41o- cells Emax (F508del-CFTR [1]): 3

CN(C(=O)c1cccc(-n2nc(C(F)(F)F)c3c2[C@@H](Oc2ccc(C(=O)O)cc2)CCC3)c1)c1ccc(C2(C(F)(F)F)N=N2)cc1 [Compound 2, (S)-4-((1-(3-(Methyl(4-(3-(trifluoromethyl)-3H-diazirin-3-yl)phenyl)carbamoyl)phenyl)-3-(trifluoromethyl)-4,5,6,7-tetrahydro-1H-indazol-7-yl)oxy)benzoic Acid]
EC50 (F508del-CFTR [1]): 24 nM | HS-YFP assay in CFBE41o- cells Emax (F508del-CFTR [1]): 1.2 | Effect in CFTR rescuing (HS-YFP assay, Figure S2) (F508del-CFTR [1]; vs DMSO): no significant effect

C[C@H]1NC(=O)N[C@H]1CCCCCC(=O)NCCOCCOCCOCCn1cc(CCC2(CCNC(=O)c3ccc(O[C@H]4CCCc5c(C(F)(F)F)nn(-c6cccc(C(=O)N(C)c7ccc8c(c7)OC(F)(F)O8)c6)c54)cc3)N=N2)nn1 [PAP_1 DS-biot, N-(2,2-Difluorobenzo[d][1,3]dioxol-5-yl)-N-methyl-3-((S)-7-(4-((2-(3-(2-(1-(18-((4S,5R)-5-methyl-2-oxoimidazolidin-4-yl)-13-oxo-3,6,9-trioxa-12-azaoctadecyl)-1H-1,2,3-triazol-4-yl)ethyl)-3H-diazirin-3-yl)ethyl)carbamoyl)phenoxy)-3-(trifluoromethyl)-4,5,6,7-tetrahydro-1H-indazol-1-yl)benzamide]
EC50 (F508del-CFTR [1]): 122 nM | HS-YFP assay in CFBE41o- cells Emax (F508del-CFTR [1]): 2.7 | CFTR forms in streptavidin pull-down (WB) after PAL (F508del-CFTR [2]): bound and pulled down both F508del-CFTR immature (band B) and mature (band C) protein | CFTR in streptavidin pull-down (WB) after PAL (F508del-CFTR [2]): consistently captured | CFTR in streptavidin pull-down (WB) after PAL (CFTR): did not detect CFTR | CFTR in streptavidin pull-down (WB) after PAL (wt-CFTR): consistently captured

C#CCCC1(CCNC(=O)c2ccc(O[C@H]3CCCc4c(C(F)(F)F)nn(-c5cccc(C(=O)N(C)c6ccc7c(c6)OC(F)(F)O7)c5)c43)cc2)N=N1 [PAP_1, (S)-3-(7-(4-((2-(3-(But-3-yn-1-yl)-3H-diazirin-3-yl)ethyl)carbamoyl)phenoxy)-3-(trifluoromethyl)-4,5,6,7-tetrahydro-1H-indazol-1-yl)-N-(2,2-difluorobenzo[d][1,3]dioxol-5-yl)-N-methylbenzamide]
EC50 (F508del-CFTR [1]): < 3 nM | HS-YFP assay in CFBE41o- cells Emax (F508del-CFTR [1]): 2.8

C[C@H]1NC(=O)N[C@H]1CCCCCC(=O)NCCOCCOCCOCCn1cc(-c2ccc(O[C@H]3CCCc4c(C(F)(F)F)nn(-c5cccc(C(=O)N(C)c6ccc(C7(C(F)(F)F)N=N7)cc6)c5)c43)cc2)nn1 [PAP_2 DS-biot, N-Methyl-3-((S)-7-(4-(1-(18-((4S,5R)-5-methyl-2-oxoimidazolidin-4-yl)-13-oxo-3,6,9-trioxa-12-azaoctadecyl)-1H-1,2,3-triazol-4-yl)phenoxy)-3-(trifluoromethyl)-4,5,6,7-tetrahydro-1H-indazol-1-yl)-N-(4-(3-(trifluoromethyl)-3H-diazirin-3-yl)phenyl)benzamide]
EC50 (F508del-CFTR [1]): 480 nM | HS-YFP assay in CFBE41o- cells Emax (F508del-CFTR [1]): 1.4 | CFTR forms in streptavidin pull-down (WB) after PAL (F508del-CFTR [2]): bound and pulled down both F508del-CFTR immature (band B) and mature (band C) protein | CFTR in streptavidin pull-down (WB) after PAL (F508del-CFTR [2]): consistently captured | CFTR in streptavidin pull-down (WB) after PAL (CFTR): did not detect CFTR | CFTR in streptavidin pull-down (WB) after PAL (wt-CFTR): consistently captured

C#Cc1ccc(O[C@H]2CCCc3c(C(F)(F)F)nn(-c4cccc(C(=O)N(C)c5ccc(C6(C(F)(F)F)N=N6)cc5)c4)c32)cc1 [PAP_2, (S)-3-(7-(4-Ethynylphenoxy)-3-(trifluoromethyl)-4,5,6,7-tetrahydro-1H-indazol-1-yl)-N-methyl-N-(4-(3-(trifluoromethyl)-3H-diazirin-3-yl)phenyl)benzamide]
EC50 (F508del-CFTR [1]): 385 nM | HS-YFP assay in CFBE41o- cells Emax (F508del-CFTR [1]): 2.1 | CFTR in pull-down (WB) after PAL with alkyne probe and CuAAC DS-biot tagging (wt-CFTR; UV irradiation, CuAAC): barely detect a band corresponding to CFTR

C[C@H]1NC(=O)N[C@H]1CCCCCC(=O)NCCOCCOCCOCCn1cc(CCC2(CCNC(=O)c3ccc(O[C@H]4CCCc5c(C(F)(F)F)nn(-c6cccc(C(=O)Nc7ccc8c(c7)OC(F)(F)O8)c6)c54)cc3)N=N2)nn1 [PAP_N1 DS-biot, N-(2,2-Difluorobenzo[d][1,3]dioxol-5-yl)-3-((S)-7-(4-((2-(3-(2-(1-(18-((4S,5R)-5-methyl-2-oxoimidazolidin-4-yl)-13-oxo-3,6,9-trioxa-12-azaoctadecyl)-1H-1,2,3-triazol-4-yl)ethyl)-3H-diazirin-3-yl)ethyl)carbamoyl)phenoxy)-3-(trifluoromethyl)-4,5,6,7-tetrahydro-1H-indazol-1-yl)benzamide]
HS-YFP assay in CFBE41o- cells EC50 (F508del-CFTR [1]): devoid of activity | CFTR in streptavidin pull-down (WB) after PAL (F508del-CFTR [2]): not pulled down | CFTR in streptavidin pull-down (WB) after PAL (wt-CFTR): not pulled down

C[C@H]1NC(=O)N[C@H]1CCCCCC(=O)NCCOCCOCCOCCn1cc(-c2ccc(O[C@H]3CCCc4c(C(F)(F)F)nn(-c5cccc(C(=O)Nc6ccc(C7(C(F)(F)F)N=N7)cc6)c5)c43)cc2)nn1 [PAP_N2 DS-biot, 3-((S)-7-(4-(1-(18-((4S,5R)-5-Methyl-2-oxoimidazolidin-4-yl)-13-oxo-3,6,9-trioxa-12-azaoctadecyl)-1H-1,2,3-triazol-4-yl)phenoxy)-3-(trifluoromethyl)-4,5,6,7-tetrahydro-1H-indazol-1-yl)-N-(4-(3-(trifluoromethyl)-3H-diazirin-3-yl)phenyl)benzamide]
HS-YFP assay in CFBE41o- cells EC50 (F508del-CFTR [1]): devoid of activity | CFTR in streptavidin pull-down (WB) after PAL (F508del-CFTR [2]): not pulled down | CFTR in streptavidin pull-down (WB) after PAL (wt-CFTR): not pulled down
